Results on one compound are retold here after article PMC4601051, “Discovery of Indoline-2-carboxamide Derivatives as a New Class of Brain-Penetrant Inhibitors of Trypanosoma brucei” (Journal of Medicinal Chemistry, 2015).

SMILES strings stand for the structures.

The nature of this data set: Brain tissue binding by equilibrium dialysis. In kind it is in vitro ADME. Particulars: Sprague-Dawley, brain homogenate; rat (male SD rat); read-out: brain tissue binding (rat), Fu. On the procedure: In brief, a 96-well equilibrium dialysis apparatus was used to determine the free fraction in the brain for the test compound (HT Dialysis LLC, Gales Ferry, CT). Membranes (12–14 kDa A cutoff) were conditioned in deionized water for 60 min, followed by conditioning in 80:20 deionized water:ethanol for 20 min and then rinsed in artificial cerebrospinal fluid (CSF) before use. Mouse brain was removed from the freezer and allowed to thaw on the day of experiment. […] Diluted brain homogenate was spiked with the test compound (10 ug/g), and 150 μL aliquots (n = 6 replicate determinations) loaded into the 96-well equilibrium dialysis plate. Dialysis vs artificial CSF (150 μL) was carried out for 5 h in a temperature controlled incubator at ca. 37 °C (Stuart scientific Ltd., UK) using an orbital microplate shaker at 125 rpm (Stuart scientific Ltd., UK). […] All samples were analyzed by means of UPLC/MS/MS on a Quattro Premier XE mass spectrometer (Waters Corporation, USA). The unbound fraction was determined as the ratio of the peak area in artificial CSF to that in brain, with correction for dilution factor according to eq 1.[42] […] 1 where D = dilution factor in brain homogenate and Fu,apparent is the measured free fraction of diluted brain homogenate.
In general terms: Equilibrium dialysis compares concentrations on both sides of a semipermeable membrane.

In the case of `CNC(=O)[C@H]1Cc2ccccc2N1C(=O)Cc1ccc(F)cc1` [Compound 47, (R)-1-(2-(4-Fluorophenyl)acetyl)-N-methylindoline-2-carboxamide], the fraction unbound at 5 h, 10 ug/g was 0.43.
